Laboratory results reported in US20240376436A1, “COMPOSITIONS AND METHODS FOR BIASING THE POLARITY OF ORGANOIDS” (STEMCELL TECHNOLOGIES CANADA INC., priority 2021, published 2024).

How the values were obtained:
[1] = test system: apical-out organoids generated from passage 6 pulmonary lineage cells; experiment: Imaging of ciliation of apical-out organoids; type: cell-based, human; settings: passage 6 cells; medium comprising an inhibitor of TGFbeta signaling and Y-27632; FIG. 7A
Description: (§1) After the aggregates were formed and sufficiently matured in accordance with Example 3, 500 μL of fresh apical-out airway organoid medium was added to each well. The aggregates were then resuspended using a P1000 pipette and each well distributed to two wells of a 24-well plate (prepared as described in Example 2). The aggregates were incubated under non-adherent conditions in apical-out airway organoid medium for up to 15 days. A partial medium change was performed every second day.
Fully mature organoids, formed in accordance with Example 4, were imaged using a standard microscope camera. For example, the organoids may be imaged using a Leica DMi8 or an EVOS M500.
Representative images of apical-out organoids generated from passage 6 pulmonary lineage cells from a donor are shown in FIG. 7.

[2] = test system: apical-out organoids formed from human bronchial epithelial cells; experiment: Counting ciliated cells among dissociated apical-out airway organoids; type: cell-based; settings: FIG. 3; for percentage of ciliated cells: first donor, highest concentrations of the titrated inhibitor in the organoid medium
Description: Cells were cultured and dissociated in accordance with Example 1, and seeded into Aggrewell™ 400 plates (STEMCELL Technologies) that were prepared in accordance with Example 2. Aggregates were generated by seeding roughly 1.2×10^5 cells per well (100 cells per microwell) of an Aggrewell™ 400 plate. The cells were seeded in 500 μL of apical-out organoid medium comprising a basal medium and an inhibitor of notch signaling. The AggreWell™ plate was centrifuged for 3 min at 100 g in order to sediment the cells to the bottom of the microwell. The plates were then incubated for 24 h to 144 h at 37° C. and 5% CO2.
as §1
Apical-out airway organoids formed in accordance with Example 4 were harvested on day 15, transferred to a 15 ml tube, and centrifuged at 150 g for 5 min. The supernatant was removed, and the organoids were washed once with DMEM. The washed organoids were resuspended in ACCUTASE (STEMCELL Technologies) and were incubated for 15 minutes at room temperature, before being dissociated to single cells by pipetting vigorously with a P1000 pipette. The single-cell suspension was diluted 1:1 with trypan blue and was then loaded to a Hemocytometer where the cells were counted manually. At the time the dissociated cells are counted, the number of ciliated cells can also be determined by visual inspection.
In one experiment, apical-out organoids were formed from two donor samples in apical-out media formulated with different concentrations of an inhibitor of notch signaling and an inhibitor of TGFbeta signaling. […]

Row | Structure (SMILES) | ciliation of organoids (representative images) [1] | percentage of ciliated cells [2] | emergence of ciliated cells ([2]; second donor, lower concentrations in the organoid medium)
1 | C[C@@H](N)[C@H]1CC[C@H](C(=O)Nc2ccncc2)CC1 [Y-27632] | patchy ciliation | – | –
2 | C[C@H](NC(=O)Cc1cc(F)cc(F)c1)C(=O)N[C@H](C(=O)OC(C)(C)C)c1ccccc1 [DAPT] | – | decreased percentage of ciliated cells | –
3 | Cc1cccc(-c2[nH]ncc2-c2ccnc3ccccc23)n1 [A77-01] | – | decreased percentage of ciliated cells | detrimental to the emergence of ciliated cells
